# Tested on: CcaF
# Assay: In vitro CcaF leader peptide removal assay
# Type: biochemical, Chryseobacterium carnipullorum DSM25581
# Conditions: substrate:CcaF 100:1 to 20:1; 50 mM Tris-HCl pH 8.0, RT overnight; MALDI-TOF MS
# Source text: To identify the position of each modification and characterize the final product, the leader peptide must be excised. To this end, we focused on the putative peptidase CcaF. The sequence of CcaF is annotated as a S8 (subtilisin type) serine protease and contains a classical Asp-His-Ser catalytic triad. Recombinant CcaF was heterologously expressed in E. coli BL21(DE3) and purified as a polyHis-tagged protein (Supplementary Fig. 7). […] Given the structural divergence amongst these modified peptides, CcaF appears to be a protease with a broad substrate scope.
# The leader peptide was removed by protease CcaF. The reactions were performed in a 1.5 mL eppendorf tube with optimized ratio (100:1 to 20:1) of different substrates and CcaF in 50 mM Tris-HCl (pH =8.0) buffer at RT overnight. The substrates are different modified full length precursor peptide and synthetic 10-mer peptide. The reaction was monitored by MALDI-TOF MS, if the digestion was not completed, another 50:1 ratio CcaF protease was added and stay at RT for another 8 hours.
sequence,measurement,value
DELSATAAAA [10-mer peptide],cleavage by protease CcaF,digested at the expected position

# Source: PMC10676384, “Core-dependent post-translational modifications guide the biosynthesis of a new class of hypermodified peptides” (Nature Communications, 2023)
